Measured values published in patent US12365675B2, “Stable heavy isotopes in amide functional groups and uses thereof” (RISEN (SUZHOU) PHARMA TECH CO., LTD., priority 2020, dated 2025).

What was measured:
[1] = Pharmacokinetic studies in beagle dogs, single oral dose; format: in vivo; details: for CLz/F: single oral dose 2.5 mg/kg each, co-administered, plasma
Method: Male and female beagle dogs (n=4; 2 males and 2 females) were used in the study. A single oral dose of Alpelisib (2.5 mg/kg) and Compound 1 (^18O1-Alpelisib) (2.5 mg/kg) were co-administered (at a total dose of 5 mg/kg) in DMSO and 0.5% carboxymethyl cellulose sodium (CMC-Na) aqueous solution (5:95, v/v). Blood samples were collected for analysis of Alpelisib and ^18O1-Alpelisib at 0.25, 0.5, 1, 1.5, 2, 3, 4, 6, 8, 10, 12 and 24 h. In FIG. 4, lines labelled with -∘- and -Δ- represent the plasma concentrations of Alpelisib-^18O1 and Alpelisib, respectively, following oral administration of the same dose of Alpelisib-^18O1 and Alpelisib to the animals.

[2] = Pharmacokinetic studies in Sprague Dawley (SD) rats, oral gavage; format: in vivo; details: both doses tested (2.5 and 0.322 mg/kg), greatest effect at low dose
Method: (a) SD rats, six in a group (n=6), were grouped randomly. Compound 1 (Alpelisib-^18O1) and Alpelisib were mixed and adjusted to 1:1 molar ratio in dosing solution (1.25 mg/mL); and the dosing solution was administered to the animals, via oral gavage, at a dose level of 2.5 mg/kg. Blood samples were collected at pre-set time points following drug administration, at 0.167, 0.5, 1, 2, 3, 4, 6, 8, and 24 hours (h). The blood samples were converted to plasma samples using standard techniques, and the latter samples were analyzed to determine the concentrations of Compound 1 and Alpelisib. In FIG. 1a, lines labelled with -∘- and --Δ-- represent the plasma concentrations of Alpelisib-^18O1 and Alpelisib, respectively, following oral administration of the same molar dose of Alpelisib-^18O1 and Alpelisib to the animals.
(b) Similarly, Compound 1 (Alpelisib-^18O1) and Alpelisib were administered to the animals (SD rats, n=4), via oral gavage, at a low dose (dose level of 0.322 mg/kg). Blood samples were collected at pre-set time points following drug administration, at 0.167, 0.5, 1, 2, 4, 6, 8, 10 and 24 hours (h). The blood samples were converted to plasma samples using standard techniques, and the latter samples were analyzed to determine the concentrations of Compound 1 and Alpelisib. […]

[3] = Pharmacokinetic studies in ICR mice, oral gavage; format: in vivo; details: same dose
Method: ICR mice, 48, in 6 groups (n=8), were grouped randomly. Compound 1 (Alpelisib-^18O1) and Alpelisib were mixed and adjusted to 1:1 molar ratio in dosing solution (1.25 mg/mL); and the dosing solution was administered to the animals, via oral gavage, at a dose level of 2.5 mg/kg. Blood samples were collected (a group of 8 animals for each time point) at time points, after dosing, at 0.5, 1, 2, 4, 8, and 12 h. The blood samples were converted to plasma samples using standard techniques, and the latter samples were analyzed to determine the concentrations of Compound 1 and Alpelisib. In FIG. 2, lines labelled with -∘- and --Δ-- represent the plasma concentrations of Alpelisib-^18O1 and Alpelisib, respectively, following oral administration of the same dose of Alpelisib-^18O1 and Alpelisib to the animals.

[4] = M4 and M4-18O1 production in liver S9 culture media; format: in vitro ADME, monkey, human, mini pig, Wistar rat
Method: Stock solution (50 μL) containing equal molar concentration of Alpelisib and Alpelisib-^18O1 was diluted with pre-warmed (37° C., water bath) 0.1 M Tris-Acetate buffer; and the concentration of each compound in this working solution was 4.5 μM. In each incubation well were added the above working solution (50 μL) and a liver S9 solution (50 μL), mixed well. The sample was pre-incubated for 5 min, following by addition, to each well, of β-NADPH dosing solution (100 μL). The sample plate was incubated at 37° C., and analyzed at time points of 0, 15, 30, 60, and 240 min., in triplicates. Sample analysis: at a pre-set time-point, a stop solution (800 μL, acetonitrile) was added to each well; the sample was well-mixed (Vortex), and centrifuged at 12000 rpm for 5 minutes; the supernatant was transferred to analytical sample vial, and then analyzed with LC-MS/MS, for M4 and M4-^18O1. […] Liver S9 used in the experiment: (a) monkey liver S9, (b) pooled human S9, (c) mini pig liver S9, and (d) male Wistar rat Liver S9.

| CLz/F [1] | plasma concentration compared with Alpelisib [2] | plasma concentration compared with Alpelisib [3] | plasma concentration compared with Alpelisib ([1]; oral, same dose) | concentration of the metabolite M4-18O1 compared to that of M4 from alpelisib ([4]; liver S9 (monkey, pooled human, mini pig, male Wistar rat), 37° C., β-NADPH, 0-240 min, equimolar co-incubation) | metabolism compared to that of Alpelisib ([4]; liver S9 incubation, taken together with PK results) | SMILES |
| --- | --- | --- | --- | --- | --- | --- |
| 6.83 mL/min/kg |  |  |  |  |  | Cc1nc(NC(=O)N2CCC[C@H]2C(N)=O)sc1-c1ccnc(C(C)(C)C(F)(F)F)c1 [Alpelisib, N-(4-methyl-5-(2-(2,2,2-trifluoro-1,1-dimethylethyl)-4-pyridinyl)-2-thiazolyl)aminocarbonyl-L-prolinamide, reference compound] |
| 6.33 mL/min/kg | higher than for Alpelisib | higher than for Alpelisib | higher than for Alpelisib | decreased | reduced | Cc1nc(NC(=O)N2CCC[C@H]2C(N)=[18O])sc1-c1ccnc(C(C)(C)C(F)(F)F)c1 [Compound 1, N-(4-methyl-5-(2-(2,2,2-trifluoro-1,1-dimethylethyl)-4 pyridinyl)-2-thiazolyl)aminocarbonyl-L-prolin-^18O-amide] |
